Assay results reported in patent publication US9873702B2, “Heterocyclic compounds as biogenic amine transport modulators” (Southern Research Institute, priority 2014, dated 2018).
Like-named read-outs stand apart in the source and are kept apart here.

Assays:
[1] = target: T1, dopamine transporter (DAT) (Rattus norvegicus, UniProt P23977); test: d-Amphetamine-induced DAT-mediated [^3H]DA release; type: biochemical; set-up: Freshly removed caudate was homogenized in 10% ice-cold sucrose; from tissue; host or cells: rat caudate synaptosomes; settings: Apparent Kc = [Blocker]/((EC50-2/EC50-1) − 1), negative when shifted EC50 is less than control
[2] = target: T1, dopamine transporter (DAT); test: Dopamine reuptake ([^3H]dopamine uptake) inhibition in rat brain synaptosomes
Method: Freshly removed caudate was homogenized in 10% ice-cold sucrose with 12 strokes of a hand-held Potter-Elvehj em homogenizer followed by centrifugation at 1000×g for 10 min. The supernatants were saved on ice and used immediately. Transporter activity was assessed using 5 nM [^3H]dopamine. […] The selectivity of the uptake assay for dopamine active transporter (DAT) was optimized by including 100 nM citalopram and 100 nM desipramine as blockers of serotonin transporter (SERT) and norepinephrine transporter (NET) in the sucrose solution and assay buffer. Uptake inhibition assays were conducted at 25° C. and were initiated by adding 100 μl of tissue to 900 μL assay buffer containing test drug and [^3H]dopamine. Test drugs were diluted in assay buffer containing 1 mg/mL bovine serum albumin. Nonspecific uptake was measured by incubating in the presence of 10 μM indatraline. The reactions were stopped after 15 minutes by rapid vacuum filtration with a cell harvester (BRANDEL) over GF/B filters (Whatman) presoaked in wash buffer maintained at 25° C. (10 mM Tris-HCl, pH 7.4/150 mM NaCl). Filters were rinsed with 6 mL wash buffer and retained tritium was quantified by a MicroBeta liquid scintillation counter (PerkinElmer) after overnight extraction in 0.6 mL of liquid scintillation cocktail (Cytoscint, ICN). The data from three experiments were pooled and fit to a dose-response curve equation (using Kaleidagraph), to yield an Emax and EC50 value.
The data from three experiments were pooled and fit to a dose-response curve equation (using KaleidaGraph; Synergy Software, Reading, Pa.) to yield an Emax and IC50 value.

[3] = target: T2, serotonin transporter (SERT) (Rattus norvegicus, UniProt P31652); test: Serotonin reuptake ([^3H]serotonin uptake) inhibition in rat brain synaptosomes; type: biochemical
T2 construct: Freshly removed whole brain minus cerebellum and caudate was homogenized; from tissue; host or cells: rat whole brain minus cerebellum and caudate, synaptosomes

[4] = target: norepinephrine transporter (NET) (Rattus norvegicus, UniProt Q9WTR4); test: Norepinephrine reuptake ([^3H]norepinephrine uptake) inhibition in rat brain synaptosomes
[5] = target: T1, dopamine transporter (DAT); test: Time course of [^3H]DA uptake/accumulation; type: biochemical; set-up: Freshly removed caudate was homogenized in 10% ice-cold sucrose; from tissue; host or cells: rat caudate synaptosomes
[6] = target: T1, dopamine transporter (DAT); test: Dopamine transporter-mediated [^3H]MPP^+ release, shift of D-amphetamine-induced release, rat caudate synaptosomes; type: biochemical; set-up: Freshly removed caudate was homogenized in 10% ice-cold sucrose; from tissue; host or cells: rat caudate synaptosomes
DAT = target: T3, DAT (Rattus norvegicus, UniProt P23977); test: Dopamine transporter binding, inhibition of [^3H]WIN35428 binding in rat caudate membranes; settings: inhibition of [3H]WIN35428 binding; mean ± S.D., n = 3
T3 construct: from tissue; host or cells: rat caudate membranes
How it was run: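 Rat caudate membranes in 50 mM sodium phosphate pH 7.4 with protease inhibitors, EDTA/EGTA and BSA were incubated with 1 nM [^3H]WIN35428 and test drug for 2 hours at 25° C. Filtration-retained tritium measured; three pooled experiments fit to dose-response to give Emax and EC50.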

T1 sequence (P23977 whole entry): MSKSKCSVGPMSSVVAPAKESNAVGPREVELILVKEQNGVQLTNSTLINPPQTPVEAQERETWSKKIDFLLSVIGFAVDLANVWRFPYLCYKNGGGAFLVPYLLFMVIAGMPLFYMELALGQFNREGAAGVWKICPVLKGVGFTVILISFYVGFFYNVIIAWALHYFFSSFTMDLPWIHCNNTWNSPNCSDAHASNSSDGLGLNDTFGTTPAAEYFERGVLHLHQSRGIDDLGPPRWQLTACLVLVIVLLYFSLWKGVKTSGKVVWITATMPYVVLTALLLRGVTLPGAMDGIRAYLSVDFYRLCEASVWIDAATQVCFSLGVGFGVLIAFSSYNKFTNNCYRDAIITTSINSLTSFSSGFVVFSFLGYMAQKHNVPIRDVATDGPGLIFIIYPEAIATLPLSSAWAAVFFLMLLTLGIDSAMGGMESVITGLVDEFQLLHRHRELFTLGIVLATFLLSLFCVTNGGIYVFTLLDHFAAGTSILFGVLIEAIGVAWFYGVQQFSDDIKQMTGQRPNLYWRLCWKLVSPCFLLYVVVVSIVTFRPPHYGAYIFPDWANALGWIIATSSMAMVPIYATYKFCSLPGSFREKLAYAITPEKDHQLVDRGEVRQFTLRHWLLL
T2 sequence (P31652 whole entry): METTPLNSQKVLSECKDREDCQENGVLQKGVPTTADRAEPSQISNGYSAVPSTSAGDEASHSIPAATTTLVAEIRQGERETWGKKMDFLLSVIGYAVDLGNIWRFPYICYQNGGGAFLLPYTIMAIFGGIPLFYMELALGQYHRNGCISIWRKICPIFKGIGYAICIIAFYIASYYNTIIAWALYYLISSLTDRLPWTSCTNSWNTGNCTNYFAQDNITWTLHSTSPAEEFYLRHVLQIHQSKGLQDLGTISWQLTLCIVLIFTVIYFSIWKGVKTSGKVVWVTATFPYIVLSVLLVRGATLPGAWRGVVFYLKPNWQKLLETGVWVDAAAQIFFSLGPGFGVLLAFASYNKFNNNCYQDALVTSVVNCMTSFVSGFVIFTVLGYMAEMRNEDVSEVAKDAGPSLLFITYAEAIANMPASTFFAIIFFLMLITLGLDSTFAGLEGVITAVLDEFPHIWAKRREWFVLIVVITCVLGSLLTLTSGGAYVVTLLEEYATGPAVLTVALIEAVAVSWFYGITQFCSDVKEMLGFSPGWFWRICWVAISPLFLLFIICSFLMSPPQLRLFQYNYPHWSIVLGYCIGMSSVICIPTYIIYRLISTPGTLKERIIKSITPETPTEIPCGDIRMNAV
T3 sequence (P23977 whole entry): as the sequence (P23977 whole entry) above

Apparent Kc [1]: -239 nM
IC50 ([2]; IC50 for DAT Uptake Inhibition, rounded value as listed in Table 10): 2 nM
IC50 ([2]; IC50 for inhibition of DAT uptake, [^3H]DA uptake, text of b784): 2.3 ± 0.4 nM
efficacy of [^3H]DA (DAT) uptake inhibition, in words ([2]; partial versus full inhibition): partial inhibitor
Emax ([2]; read-out: DAT Uptake Emax): 68 ± 2%
Emax ([2]; read-out: Emax for DAT Uptake Inhibition): 68%
Emax for DAT Uptake Inhibition ([2]; value as listed in Table 10): 68%
Emax ([3]; mean ± S.D., n = 3, read-out: SERT Uptake Emax): 52 ± 2%
IC50 ([3]; mean ± S.D., n = 3, read-out: SERT Uptake IC50): 23 ± 5 nM
efficacy of SERT uptake inhibition, in words ([3]; partial versus full inhibition): partial inhibitor
NET Uptake Emax ([4]; mean ± S.D., n = 3): 72 ± 4%
efficacy of NET uptake inhibition, in words ([4]; partial versus full inhibition): partial inhibitor
NE Uptake Emax (% I ± SD) ([4]; rat brain synaptosomes, 10 nM [^3H]norepinephrine, maximal inhibition from dose-response fit): 72 ± 4 % I
IC50 ([4]; read-out: NE Uptake EC50 (nM ± SD), rat brain synaptosomes, 10 nM [^3H]norepinephrine, 10 min, 37° C.): 52 ± 15 nM
IC50 ([4]; read-out: NET Uptake IC50, mean ± S.D., n = 3): 52 ± 15 nM
Emax at 0.001 µM ([5]; [^3H]DA accumulation, 1 nM compound 55, read-out: Inhibition of the Emax value (%)): 11%
Emax at 0.004 µM ([5]; [^3H]DA accumulation, 4 nM compound 55, read-out: Inhibition of the Emax value (%)): 29%
Emax at 0.008 µM ([5]; [^3H]DA accumulation, 8 nM compound 55, read-out: Inhibition of the Emax value (%)): 42%
Emax at 0.025 µM ([5]; [^3H]DA accumulation, 25 nM compound 55, read-out: Inhibition of the Emax value (%)): 57%
Emax ([5]; dose-dependent decrease of maximum [^3H]DA accumulation, read-out: Emax of decrease of the Emax of [^3H]DA accumulation): 69 ± 1%
Emax ([5]; maximum level of [^3H]DA accumulation, 1 nM compound 55): 89 ± 4
Emax ([5]; maximum level of [^3H]DA accumulation, 4 nM compound 55): 71 ± 2
Emax ([5]; maximum level of [^3H]DA accumulation, 8 nM compound 55): 58 ± 2
Emax ([5]; maximum level of [^3H]DA accumulation, 25 nM compound 55): 43 ± 3
D-Amphetamine Emax (% ± SD) ([6]; Emax of D-amphetamine for [^3H]MPP^+ release in presence of 50 nM test compound): 103 ± 3%
Apparent Kc ([6]; [3H]MPP+ release, Apparent Kc = [Blocker]/((EC50-2/EC50-1) − 1), negative when shifted EC50 is less than control): -368 nM
effect on the d-amphetamine Emax value, in words ([6]; d-amphetamine-induced DAT-mediated [^3H]MPP^+ release, blocking concentration ˜25 times IC50 for DAT uptake inhibition): decreased
DAT Binding εmax (DAT): Inactive
Compound: c1ccc(C(CNc2nc(-c3ccc4nccn4c3)nc3ccccc23)c2ccccc2)cc1 [compound 55, N-(2,2-Diphenylethyl)-2-(Imidazo[1,2-a]Pyridin-6-yl)Quinazolin-4-Amine]
effect on the Emax of [^3H]DA accumulation, in words ([5]; time course of [^3H]DA uptake): decreased the Emax in a dose-dependent manner
